Test results taken from US20160082036A1, “HYDROXYALKYL STARCH FOR THE TREATMENT OF CANCERS BY REDUCTION OF TUMOR GROWTH RATES” (Fresenius Kabi Deutschland GmbH, priority 2012, published 2016).

Experiments:
[1] = tested on: human breast cell carcinoma line MT-3; experiment: Example 1: MT-3 xenograft tumor growth after single i.v. injection; type: in vivo
Description: Summary: Mice were either treated with a single i.v. injection of docetaxel (Taxotere®) at a dose of 25 mg/kg or with the plasma expander Voluven® (20 ml/kg) or with “HES 100/1.0” (approx. 740 mg/kg) dissolved in saline to determine tumor growth and body weight over the course of the experiment.
Docetaxel (available under the name Taxotere®) was obtained from Sanofi-Aventis Deutschland GmbH, (Lot CHB D9C895; Berlin, Germany) and was stored in the dark at −20° C. until use. […] “HES 100/1.0” (as specified in table 2 above) was dissolved in saline.
The final solution of docetaxel was prepared immediately before injection by mixing an appropriate volume of the original stock solution provided by Sanofi (20 mg/ml) with saline (0.9% NaCl, B. Braun Melsungen AG, Melsungen, Germany) as indicated in table 4 below. Saline was mixed with absolute ethanol to obtain an approx. 6.25% solution, the original vehicle of Taxotere®. Voluven® was used in the original formulation described above.
Adult female NMRI:nu/nu mice (TACONIC Europe, Lille Skensved, Denmark) bred in the own (EPO) colony were used throughout the study.
The MT-3 cell line was used for subcutaneous (s.c.) xenotransplantation in immune deficient female NMRI:nu/nu mice. […]
On study day 0 each 5×10^6 tumor cells were transplanted s.c. into the flank of each mouse. The animals were monitored for tumor growth and when tumors were palpable, generally between day 7 and day 10 after transplantation, mice were randomised into the treatment groups. […]
Individual tumor diameters were measured two times weekly with a calliper. Tumor volumes were calculated according to V=(length×(width)^2)/2. […] At each measurement day the median and mean tumor volumes per group and also the treated to control (T/C RTV) values in percent were calculated. […]

[2] = design: species or system NMRI:nu/nu mice; conditions: mouse, in vivo
Description: Hydroxyethyl starch compounds were obtained from Fresenius Kabi Deutschland GmbH on Dec. 7, 2012 and were stored at room temperature until use. The compounds each were dissolved in saline to obtain 10% w/v solutions. The application was 400 μl/20 g mouse body weight for saline and HES solutions, while Docetaxel was given in a volume of 10 ml/kg as slow bolus. The route of administration was intravenously for all mice.
Adult female NMRI:nu/nu mice (TACONIC Europe, Lille Skensved, Denmark) bred in the own (EPO) colony were used throughout the study. At the start of experiment they were 6-8 weeks of age.
In study 3 mice were sacrificed when the tumor size reached more than 1.5 cm^3, or the tumors ulcereted. Study 3 was finished when the mean TV was in most groups larger than 1.0 cm^3.
On the day of necropsy mice were sacrificed by cervical dislocation and inspected for gross organ changes.

[3] = single i.v. dose at day 7 after inoculation, MT-3 s.c. in NMRI:nu/nu mice, in cm3 (unit assumed)

Which “Tumor volume (mean) at day 34” value [1, 3] does the source give for `CC(=O)O[C@@]12CO[C@@H]1C[C@H](O)[C@@]1(C)C(=O)[C@H](O)C3=C(C)[C@@H](OC(=O)[C@H](O)[C@@H](NC(=O)OC(C)(C)C)c4ccccc4)C[C@@](O)([C@@H](OC(=O)c4ccccc4)[C@H]21)C3(C)C` [Docetaxel] here?
Its value is 0.930 ± 0.395.

What about the “Tumor volume (mean) nadir” value [1, 3] of the same molecule?
The value was 0.072 ± 0.047.

What about the “inhibition of tumor growth (in words)” value ([1]; single i.v. treatment, compared to control group, FIG. 4) of the same molecule?
The value was “significant inhibition of tumor growth”.

And the “body weight (in words)” value [2]?
The value was “moderate body weight loss”.

What about the “general toxicity, clinical sign (in words)” value ([2]; iv) of the same molecule?
The value was “apathy”.
